# Columns and labels:
# [1] = target: T1, human folate receptor (FR)-α (Homo sapiens, UniProt P15328); assay: Relative affinity assay (displacement of 3H-folic acid on KB cells); type: binding; conditions: 100 nM 3H-folic acid, 1 h at 37° C., normalized against 1 for FA
# T1 construct: endogenous in cells; host or cells: KB cells (human HeLa carcinoma contaminant)
# Experimental: Cell lines utilized to evaluate EC2319 in in-vitro studies were as follows: KB human HeLa carcinoma contaminant expressing the human folate receptor (FR)-α, RAW264.7 mouse macrophage-derived tumor cells expressing a murine FR, THP-1-FRβ human monocytic leukemia engineered to express the human FR-β. All cells were grown in a folate-free RPMI1640 medium (Gibco BRL) (FFRPMI) containing 10% heat-inactivated fetal calf serum (HIFCS) and antibiotics, and maintained under a 5% CO2 atmosphere using standard cell culture techniques.
# EC2319 FR-binding affinity was determined in a relative affinity assay using KB cells as the source of FR. Briefly, KB cells (1×10^5 cells/well) were plated in 24-well plates at 18 to 24 h before use. The cells were then incubated for 1 h at 37° C. with 100 nM of ^3H-folic acid (Moravek Inc.) plus a series of 3.16-fold dilutions of EC2319 or FA at 0.01-31.6 μM in triplicates. At the end of incubation, the cells were washed 3 times with a phosphate-buffered saline (PBS, pH 7.4) and lysed for 5 min at room temperature in 0.5 mL of 0.25 N NaOH. 0.45 mL of the cell lysate was taken from each well and counted in a scintillation counter. […] See result in FIG. 1.
# human THP-1-FRβ cells = assay: Cell viability (XTT) assay, THP-1-FRβ; type: cell-based
# Experimental: (§1) All cells were grown in a folate-free RPMI1640 medium (Gibco BRL) (FFRPMI) containing 10% heat-inactivated fetal calf serum (HIFCS) and antibiotics, and maintained under a 5% CO2 atmosphere using standard cell culture techniques.
# (§2) After a 2 h exposure, the drug-containing media were replaced and the cells were allowed to incubate further for 72 h. The cell viability was assessed by adding XTT (2,3-bis(2-methoxy-4-nitro-5-sulfo-phenyl)-2H-tetrazolium-5-carboxanilide) to the culture medium for 3 h following the manufacturer's instructions. All results were expressed as % absorbance (minus background) relative to the untreated control cells. See results in FIG. 2A and FIG. 2B.
# (§3) Importantly, the observed anti-proliferative effect was 100% competable in the presence of excess FA, indicating a FR-specific mode of action.
# [2] = test system: mouse RAW264.7 macrophage cells; assay: Cell viability (XTT) assay, RAW264.7; type: cell-based
# Experimental: as §1, §2, §3
# [3] = 2 h exposure, 72 h chase, XTT, read-out: relative IC50, inhibition of cell proliferation
# T1 sequence (P15328 25-234): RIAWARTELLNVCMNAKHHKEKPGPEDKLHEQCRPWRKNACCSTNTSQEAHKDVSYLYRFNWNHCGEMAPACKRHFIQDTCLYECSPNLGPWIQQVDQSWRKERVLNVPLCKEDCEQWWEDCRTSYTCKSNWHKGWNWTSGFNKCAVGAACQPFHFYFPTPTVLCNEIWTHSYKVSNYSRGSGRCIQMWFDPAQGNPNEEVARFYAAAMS
structure (smiles),measurement,setting,value
COC(=O)[C@H](CSSC(C)(C)[C@H](NC(=O)[C@H](CCC(=O)NC[C@H](O)[C@@H](O)[C@H](O)[C@H](O)CO)NC(=O)[C@H](CCC(=O)O)NC(=O)[C@H](CCC(=O)NC[C@H](O)[C@@H](O)[C@H](O)[C@H](O)CO)NC(=O)[C@H](CCC(=O)O)NC(=O)[C@H](CCC(=O)NC[C@H](O)[C@@H](O)[C@H](O)[C@H](O)CO)NC(=O)CC[C@H](NC(=O)c1ccc(NCc2cnc3nc(N)[nH]c(=O)c3n2)cc1)C(=O)O)C(=O)O)NC(=O)CC[C@H](NC(=O)c1ccc(NCc2cnc3nc(N)nc(N)c3n2)cc1)C(=O)O [EC2319],relative affinity,[1],0.493
same,concentrations with cytostatic effect,human THP-1-FRβ cells,≥ 100 nM
same,anti-proliferative effect competable in the presence of excess FA,human THP-1-FRβ cells; 100-fold excess FA,100%
same,IC50,human THP-1-FRβ cells; [3],~8.7 nM
same,concentrations with cytostatic effect,[2],≥ 10 nM
same,anti-proliferative effect competable in the presence of excess FA,[2]; 100-fold excess FA,100%
same,IC50,[2]; [3],~2.9 nM

# Source: patent publication US20180280528A1, “ANTIFOLATE CONJUGATES FOR TREATING INFLAMMATION” (ENDOCYTE, INC., priority 2015, published 2018)
